Like-named read-outs stand apart in the source and are kept apart here.
Key:
[1] = CHI Log D procedure; type: physicochemical; details: for CHI Log D: pH 7.4; for chromatographic logD: pH 7.4, CHI Log D
[2] = target: T1, full-length beta-Catenin (Uniprot ID P35222) (Homo sapiens, UniProt P35222); assay: Fluorescence polarization IC50 (beta-catenin / 5FAM-TCF4 10-53 competition); type: binding
T1 construct: 10 nM full-length beta-Catenin (Uniprot ID P35222)
T1 sequence (P35222 1-781): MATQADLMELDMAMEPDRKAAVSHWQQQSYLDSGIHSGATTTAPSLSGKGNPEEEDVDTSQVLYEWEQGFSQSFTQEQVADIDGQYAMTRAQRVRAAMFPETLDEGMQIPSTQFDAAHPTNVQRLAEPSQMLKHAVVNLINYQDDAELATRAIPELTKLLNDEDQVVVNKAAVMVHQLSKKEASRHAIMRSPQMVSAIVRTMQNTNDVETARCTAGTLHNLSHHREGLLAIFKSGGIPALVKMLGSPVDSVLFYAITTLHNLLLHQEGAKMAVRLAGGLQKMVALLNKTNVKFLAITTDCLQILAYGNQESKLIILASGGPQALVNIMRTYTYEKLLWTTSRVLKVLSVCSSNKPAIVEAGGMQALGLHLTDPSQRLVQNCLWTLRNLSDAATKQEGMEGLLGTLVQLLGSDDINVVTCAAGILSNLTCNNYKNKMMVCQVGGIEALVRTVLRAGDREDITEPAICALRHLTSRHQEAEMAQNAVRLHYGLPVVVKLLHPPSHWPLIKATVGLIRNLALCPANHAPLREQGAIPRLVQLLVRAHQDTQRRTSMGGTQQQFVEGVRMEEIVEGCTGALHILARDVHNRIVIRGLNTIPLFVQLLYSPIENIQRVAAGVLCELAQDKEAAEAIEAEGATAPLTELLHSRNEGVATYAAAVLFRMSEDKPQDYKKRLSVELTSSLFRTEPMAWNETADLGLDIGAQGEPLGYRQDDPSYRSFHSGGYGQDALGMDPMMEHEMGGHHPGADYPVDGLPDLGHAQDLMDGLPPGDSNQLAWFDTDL

[3] = Table E2-1, read-out: beta-Catenin FP IC50
[4] = fluorescence polarization, beta-catenin, read-out: FP EC50

SMILES | CHI Log D [1] | IC50 [2, 3] [µM] | IC50 [2, 4] [µM] | chromatographic logD [1]
CC(=O)N1CCC[C@]12CC=CCCCC1(CCCC=CCOC(=O)N(C)CCC[C@@](C)(C(=O)N[C@@H](Cc3ccccc3)C(=O)N[C@@H](Cc3c[nH]c4ccccc34)C(=O)N[C@@H](CCC(N)=O)C(N)=O)NC(=O)[C@H](C(C)C)NC(=O)[C@H](Cc3ccccc3)NC(=O)[C@H](C)NC(=O)[C@H](C)NC(=O)[C@H](CC(=O)O)NC(=O)[C@H](CC(=O)O)NC1=O)NC(=O)[C@H](C)NC(=O)[C@H](CC(=O)O)NC2=O (stereo partly drawn) [I-54, Ac-PL3-Asp-Ala-B5-Asp-Asp-Ala-Ala-Phe-Val-SeN-Phe-Trp-Gln-NH2] | 1.469 | 3.19 | 3.19 | 
CC(=O)N1CCC[C@]12CC=CCCCC1(CCCC=CCOC(=O)N(C)CC[C@@](C)(C(=O)N[C@@H](Cc3ccccc3)C(=O)N[C@@H](Cc3c[nH]c4ccccc34)C(=O)N[C@@H](CCC(N)=O)C(N)=O)NC(=O)[C@H](C(C)C)NC(=O)[C@H](Cc3ccccc3)NC(=O)[C@H](C)NC(=O)[C@H](C)NC(=O)[C@H](CC(=O)O)NC(=O)[C@H](CC(=O)O)NC1=O)NC(=O)[C@H](C)NC(=O)[C@H](CC(=O)O)NC2=O (stereo partly drawn) [I-55, Ac-PL3-Asp-Ala-B5-Asp-Asp-Ala-Ala-Phe-Val-SdN-Phe-Trp-Gln-NH2] |  | 5 |  | 1.35
CC(=O)N[C@@H](Cc1ccccc1)C(=O)N[C@@H](CC(=O)O)C(=O)N[C@@H](C)C(=O)N[C@]1(C)CCCCCCC=CCOC(=O)N2CC[C@@](C(=O)N[C@@H](Cc3ccccc3)C(=O)N[C@@H](Cc3c[nH]c4ccccc34)C(=O)N[C@@H](CCC(N)=O)C(N)=O)(C2)NC(=O)[C@H](C(C)C)NC(=O)[C@H](Cc2ccc(F)cc2)NC(=O)[C@H](C)NC(=O)[C@H](C)NC(=O)[C@H](CC(=O)O)NC(=O)[C@H](CC(=O)O)NC1=O [I-78, Ac-Phe-Asp-Ala-R8-Asp-Asp-Ala-Ala-4FF-Val-PyrS-Phe-Trp-Gln-NH2] |  | 5 |  | 1.24

Compounds with a lower IC50 [2, 3], results first:

CHI Log D [1] | IC50 [2, 3] [µM] | IC50 [2, 4] [µM] | chromatographic logD [1] | SMILES
 | 2.11 |  | 1.98 | CC(=O)N1CCC[C@]12CC=CCCCC1(CCCC=CCCCCCC[C@@](C)(C(=O)N[C@@H](Cc3ccccc3)C(=O)N[C@@H](Cc3c[nH]c4ccccc34)C(=O)N[C@@H](CCC(N)=O)C(N)=O)NC(=O)[C@H](C(C)C)NC(=O)[C@H](Cc3ccccc3)NC(=O)[C@H](C)NC(=O)[C@H](C)NC(=O)[C@H](CCC(=O)O)NC(=O)[C@H](CC(=O)O)NC1=O)NC(=O)[C@H](C)NC(=O)[C@H](CC(=O)O)NC2=O (stereo partly drawn) [I-123, Ac-PL3-Asp-Ala-B5-Asp-Glu-Ala-Ala-Phe-Val-S8-Phe-Trp-Gln-NH2]
2.256 | 3.06 | 3.06 |  | CC(=O)N1CCC[C@]12CC=CCCCC1(CCCC=CCCCCCC[C@@](C)(C(=O)N[C@@H](Cc3ccccc3)C(=O)N[C@@H](Cc3c[nH]c4ccccc34)C(=O)N[C@@H](CCC(N)=O)C(N)=O)NC(=O)[C@H](C(C)C)NC(=O)[C@H](Cc3ccccc3)NC(=O)[C@H](C)NC(=O)[C@H](C)NC(=O)[C@H](CC(N)=O)NC(=O)[C@H](CC(=O)O)NC1=O)NC(=O)[C@H](C)NC(=O)[C@H](CC(=O)O)NC2=O (stereo partly drawn) [I-125, Ac-PL3-Asp-Ala-B5-Asp-Asn-Ala-Ala-Phe-Val-S8-Phe-Trp-Gln-NH2]
1.496 | 2.16 | 2.16 |  | CC(=O)N1CCC[C@]12CC=CCCCC1(CCCC=CCOC(=O)N(C)CCC[C@@](C)(C(=O)N[C@@H](Cc3ccccc3)C(=O)N[C@@H](Cc3c[nH]c4ccccc34)C(=O)N[C@@H](CCC(N)=O)C(N)=O)NC(=O)[C@H](C(C)C)NC(=O)[C@H](Cc3ccccc3)NC(=O)[C@H](C)NC(=O)[C@H](C)NC(=O)[C@H](CCC(=O)O)NC(=O)[C@H](CC(=O)O)NC1=O)NC(=O)[C@H](C)NC(=O)[C@H](CC(=O)O)NC2=O (stereo partly drawn) [I-131, Ac-PL3-Asp-Ala-B5-Asp-Glu-Ala-Ala-Phe-Val-SeN-Phe-Trp-Gln-NH2]

Reference: patent US20240116985A1, “STAPLED PEPTIDES AND METHODS THEREOF” (priority 2020, published 2024)
